Experimental data from patent publication US6218393A, “Anthranilic acid derivatives as multi drug resistance modulators” (priority 1997, dated 2001).

Key:
AR 1.0 cells [1] = experiment: Drug accumulation assay: daunorubicin accumulation in AR 1.0 cells; type: cell-based; conditions: Mus musculus, 100% = accumulation with verapamil 100 μM, 1 hr, 37° C.
How it was run: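 AR 1.0 is the MDR-resistant subline of EMT6 mouse mammary carcinoma, grown in RPMI 1640 with 10% foetal calf serum and 2 mM glutamine at 37 °C, 5% CO2. Cells were seeded 48 h before the daunorubicin accumulation assay.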

AR 1.0 cells [2] = experiment: Potentiation of doxorubicin toxicity: proliferation assay (sulphorhodamine B); type: cell-based, mouse
Description: (a) Selected compounds of formula (I) were examined for their ability to potentiate the toxicity of doxorubicin in AR 1.0 cells.

AR 1.0 cells [3] = experiment: Potentiation index with doxorubicin titration; type: cell-based, mouse; conditions: for Potentiation Index at RMA concentration 300 nM: Table C2, RMA 300 nM; for Potentiation Index at RMA concentration 500 nM: Table C2, RMA 500 nM
How it was run: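 MDR-resistant mouse EMT6 subline AR 1.0 grown four days with a doxorubicin titration (0.263 nM-17.24 μM) plus a fixed compound concentration; proliferation by sulphorhodamine B. Potentiation index derived from doxorubicin IC50 alone versus with compound.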

[4] = Mus musculus, 96 h, compound alone, four day proliferation, read-out: Compound Toxicity (IC50)
[5] = with fixed doxorubicin 0.34 μm, four days, 5760 min, read-out: Toxicity with Cytotoxic Agent (IC50)

Compound | IC50 (AR 1.0 cells [1]) [nM] | IC50 (AR 1.0 cells [2]; [4]) [nM] | IC50 (AR 1.0 cells [2]; [5]) [nM] | Potentiation Index at RMA concentration 300 nM (AR 1.0 cells [3]) | Potentiation Index at RMA concentration 500 nM (AR 1.0 cells [3])
COc1cc2c(cc1OC)CN(CCNC(=O)c1ccccc1NC(=O)c1ccc3ccccc3c1)CC2 [compound 9295, Naphthalene-2-carboxylic acid {2-[2-(6,7-dimethoxy-3,4-dihydro-1H-isoquinolin-2-yl)-ethylcarbamoyl]-phenyl}-amide] | 390 | 40000 | 600 | 16 | –
COc1cc2c(cc1OC)CN(CCNC(=O)c1ccccc1NC(=O)c1ccc(C(C)C)cc1)CC2 [compound 9304, 2-(4-Isopropyl-benzoylamino)-N-[2-(6,7-dimethoxy-3,4-dihydro-1H-isoquinolin02-yl)-ethyl]-benzamide] | 1200 | 8000 | 150 | – | 30
COc1cc2c(cc1OC)CN(CCNC(=O)c1ccccc1NC(=O)c1ccc(C3CCCCC3)cc1)CC2 [compound 9331, 2-(4-Cyclohexyl-benzoylamino)-N-[2-(6,7-dimethoxy-3,4-dihydro-1H-isoquinolin-2-yl)-ethyl]-benzamide] | 1300 | 7000 | 40 | 40 | 120
COc1cc2c(cc1OC)CN(CCNC(=O)c1ccccc1NC(=O)c1cnc3ccccc3n1)CC2 [compound 9347, Quinoxaline-2-carboxylic acid {2-[2-(6,7-dimethoxy-3,4-dihydro-1H-isoquinolin-2-yl)-ethylcarbamoyl]-phenyl}-amide] | 3000 | 35000 | 600 | – | –
COc1cc2c(cc1OC)CN(CCNC(=O)c1ccccc1NC(=O)c1ccccc1)CC2 [compound 9351, 2-Benzoylamino-N-[2-(6,7-dimethoxy-3,4-dihydro-1H-isoquinolin-2-yl)-ethyl]-benzamide] | 9000 | 43000 | 1300 | – | –
COc1cc2c(cc1OC)CN(CCNC(=O)c1cc(Cl)ccc1NC(=O)c1ccc(C(C)C)cc1)CC2 [compound 9354, 2-(4-Isopropyl-benzoylamino)-N-[2-(6,7-dimethoxy-3,4-dihydro-1H-isoquinolin-2-yl)-ethyl]-5-chioro-benzamide] | 600 | 8000 | 150 | – | 20
COc1cc2c(cc1OC)CN(CCNC(=O)c1ccccc1NC(=O)c1ccc([N+](=O)[O-])cc1)CC2 [compound 9381, 2-(4-Nitro-benzoylamino)-N-[2-(6,7-dimethoxy-3,4-dihydro-1H-isoquinolin-2-yl)-ethyl]-benzamide] | 3000 | 50000 | 1500 | – | –
COc1cc2c(cc1OC)CN(CCNC(=O)c1ccccc1NC(=O)c1nccc3ccccc13)CC2 [compound 9383, Isoquinoline-1-carboxylic acid {2-[2-(6,7-dimethoxy-3,4-dihydro-1H-isoquinolin-2-yl)-ethylcarbamoyl]-phenyl}-amide] | 2000 | 40000 | – | – | –
COc1cc2c(cc1OC)CN(CCNC(=O)c1ccccc1NC(=O)c1ccc3ccccc3n1)CC2 [compound 9385, Quinoline-2-carboxylic acid {2-[2-(6,7-dimethoxy-3,4-dihydro-1H-isoquinolin-2-yl)-ethylcarbamoyl]-phenyl}-amide] | 1200 | 40000 | – | – | –
COc1cc2c(cc1OC)CN(CCNC(=O)c1cc(-c3ccccc3)ccc1NC(=O)c1ccc(C(C)C)cc1)CC2 [compound 9432, 2-(4-Isopropyl-benzoylamino)-N-[2-(6,7-dimethoxy-3,4-dihydro-1H-isoquinolin-2-yl)-ethyl]-5-phenyl-benzamide] | 3200 | 35000 | 200 | – | –
COc1cc2c(cc1OC)CN(CCNC(=O)c1ccc(N)cc1NC(=O)c1ccc(C(C)C)cc1)CC2 [compound 9435, 2-(4-Isopropyl-benzoylamino)-N-[2-(6,7-dimethoxy-3,4-dihydro-1H-isoquinolin-2-yl)-ethyl]-4-amino-benzamide] | 1900 | 9000 | 400 | – | –
COc1cc2c(cc1OC)CN(CCc1ccc(NC(=O)c3ccccc3NC(=O)c3cccnc3)cc1)CC2 [compound 9482, N-(2-{4-[2-(6,7-Dimethoxy-3,4-dihydro-1H-isoquinolin-2-yl)-ethyl]-phenylcarbamoyl}-phenyl)-nicotinamide] | 540 | 12000 | 220 | – | –
CCC(=O)c1cnc(C(=O)Nc2ccccc2C(=O)Nc2ccc(CCN3CCc4cc(OC)c(OC)cc4C3)cc2)cn1 [compound 9569, 5-Propionyl-pyrazine-2-carboxylic acid (2-{4-[2-(6,7-dimethoxy-3,4-dihydro-1H-isoquinolin-2-yl)-ethyl]-phenylcarbamoyl}-phenyl)-amide] | 930 | 190 | 8 | – | –

More lines, in order of falling IC50 (AR 1.0 cells [1]), values ahead:

IC50 (AR 1.0 cells [1]) [nM] | Compound | IC50 (AR 1.0 cells [2]; [4]) [nM] | IC50 (AR 1.0 cells [2]; [5]) [nM] | Potentiation Index at RMA concentration 300 nM (AR 1.0 cells [3]) | Potentiation Index at RMA concentration 500 nM (AR 1.0 cells [3])
4900 | COc1cc2c(cc1OC)CN(CCc1ccc(NC(=O)c3ccccc3NC(=O)c3ccc(OC(C)=O)cc3)cc1)CC2 [compound 9548, Acetic acid 4-(2-{4-[2-(6,7-dimethoxy-3,4-dihydro-1H-isoquinolin-2-yl)-ethyl]-phenylcarbamoyl}-phenylcarbamoyl)-phenyl ester] | 1800 | 1000 | – | –
4300 | COc1cc2c(cc1OC)CN(CCc1ccc(NC(=O)c3ccccc3NC(=O)c3cccc(O)c3)cc1)CC2 [compound 9549, 2-(3-Hydroxy-benzoylamino)-N-{4-[2-(6,7-dimethoxy-3,4-dihydro-1H-isoquinolin-2-yl)-ethyl]-phenyl}-benzanlide] | 5600 | 520 | – | –
2000 | COc1cc2c(cc1OC)CN(CCNC(=O)c1ccccc1NC(=O)c1ccsc1)CC2 [compound 9365, Thiophene-3-carboxylic acid {2-[2-(6,7-dimethoxy-3,4-dihydro-1H-isoquinolin-2-yl)-ethylcarbamoyl]-phenyl}-amide] | 42000 | 800 | – | –
1800 | COc1cc2c(cc1OC)CN(CCNC(=O)c1ccccc1NC(=O)c1cc3ccccc3cn1)CC2 [compound 9389, Isoquinoline-3-carboxylic acid {2-[2-(6,7-dimethoxy-3,4-dihydro-1H-isoquinolin-2-yl)-ethylcarbamoyl]-phenyl}-amide] | 30000 | – | – | –
1200 | COc1cc2c(cc1OC)CN(CCc1ccc(NC(=O)c3ccccc3NC(=O)c3cccc(OC(C)=O)c3)cc1)CC2 [compound 9540, Acetic acid 3-(2-{4-[2-(6,7-dimethoxy-3,4-dihydro-1H-isoquinolin-2-yl)-ethyl]-phenylcarbamoyl}-phenylcarbamoyl)-phenyl ester] | 6200 | 1000 | – | –
1000 | COc1cc2c(cc1OC)CN(CCNC(=O)c1ccccc1NC(=O)c1cc3ccccc3[nH]1)CC2 [compound 9367] | 15000 | 500 | – | –
1000 | COc1cc2c(cc1OC)CN(CCc1ccc(NC(=O)c3ccccc3NC(=O)c3ccsc3)cc1)CC2 [compound 9492, Thiophene-3-carboxylic acid (2-{4-[2-(6,7-dimethoxy-3,4-dihydro-1H-isoquinolin-2-yl)-ethyl]-phenylcarbamoyl}-phenyl)-amide] | 3000 | 20 | – | –
900 | COc1cc2c(cc1OC)CN(CCNC(=O)c1ccccc1NC(=O)c1ccc(Br)cc1)CC2 [compound 9380, 2-(4-Bromo-benzoylamino)-N-[2-(6,7-dimethoxy-3,4-dihydro-1H-isoquinolin-2-yl)-ethyl]-benzamide] | 40000 | 500 | – | –
800 | COc1cc2c(cc1OC)CN(CCc1ccc(NC(=O)c3ccccc3NC(=O)c3ccc4ccccc4n3)cc1)CC2 [compound 9545, Quinoline-2-carboxylic acid (2-{4.-[2-(6,7-dimethoxy-3,4-dihydro-1H-isoquinolin-2-yl)-ethyl]-phenylcarbamoyl}-phenyl)-amide] | 1700 | – | – | –
500 | COc1cc2c(cc1OC)CN(CCc1ccc(NC(=O)c3ccccc3NC(=O)c3ccccn3)cc1)CC2 [compound 9472, Pyridine-2-carboxylic acid (2-{4-[2-(6,7-dimethoxy-3,4-dihydro-1H-isoquinolin-2-yl)-ethyl]-phenylcarbamoyl}-phenyl)-amide] | 6500 | 120 | – | –
400 | CCCc1ccc(C(=O)Nc2ccccc2C(=O)NCCN2CCc3cc(OC)c(OC)cc3C2)cc1 [compound 9297, 2-(4-Propyl-benzoylamino)-N-[2-(6,7-dimethoxy-3,4-dihydro-1H-isoquinolin-2-yl)-ethyl]-benzamide] | 18000 | 330 | 16 | –
300 | COc1cc2c(cc1OC)CN(CCNC(=O)c1ccc(F)cc1NC(=O)c1ccc(C(C)C)cc1)CC2 [compound 9349, 2-(4-Isopropyl-benzoylamino)-N-[2-(6,7-dimethoxy-3,4-dihydro-1H-isoquinolin-2-yl)-ethyl]-4-fluoro-benzamide] | 5500 | 140 | – | 22
140 | COc1cc2c(cc1OC)CN(CCc1ccc(NC(=O)c3ccccc3NC(=O)c3ccccc3OC(C)=O)cc1)CC2 [compound 9534, Acetic acid 2-(2-{4-[2-(6,7-dimethoxy-3,4-dihydro-1H-isoquinolin-2-yl)-ethyl]-phenylcarbamoyl}-phenylcarbamoyl)-phenyl ester] | 6600 | 0.2 | – | –
